According to US7943602B2 (Pantarhei Bioscience B.V., priority 2002, dated 2011):
pKi: −log10 of the molar value.

How the values were obtained:
[1] = system: immature male Wistar rats; test: In vivo androgenicity, seminal vesicle wet weight after oral dosing for 5 days; set-up: species or system rat; settings: for Increase seminal vesicle wet weight: once daily for 5 days, relative to vehicle treated rats; for Relative potency: DHT as reference (100%)
Description: Groups of 5 immature male Wistar rats, weighing 50±2 grams, received either vehicle treatment or were administered 30 or 10 mg/kg/day test substance by oral gavage in a dosing volume of 10 ml per kg for 5 consecutive days. During the experiment, animals were housed in cages of 45×23×15 cm and maintained in a controlled temperature of 22-24° C. and humidity (60-80%) environment with 12 hours light/dark cycles. Food (lab diet, rodent diet, PMI nutrition international) and water intake was ad libitum.
The animals were sacrificed 24 hours after receiving the final dose and the wet weight of the seminal vesicle of each animal was recorded and average wet weight per group was calculated. Increase in average seminal vesicle wet weight relative to the average seminal vesicle wet weight of vehicle treated rats was considered indicative for in vivo androgenicity.

[2] = molecular target: T1, Recombinant rat AR (Rattus norvegicus, UniProt P15207); test: Competitive steroid binding assay to the androgen receptor with [3H]mibolerone; settings: for AR-binding Relative affinity: Ki value of DHT set at 100%; for Affinity to AR as compared to DHT and testosterone: orders of magnitude
T1 construct: made in house; host or cells: E. coli
T1 sequence (P15207 1-902): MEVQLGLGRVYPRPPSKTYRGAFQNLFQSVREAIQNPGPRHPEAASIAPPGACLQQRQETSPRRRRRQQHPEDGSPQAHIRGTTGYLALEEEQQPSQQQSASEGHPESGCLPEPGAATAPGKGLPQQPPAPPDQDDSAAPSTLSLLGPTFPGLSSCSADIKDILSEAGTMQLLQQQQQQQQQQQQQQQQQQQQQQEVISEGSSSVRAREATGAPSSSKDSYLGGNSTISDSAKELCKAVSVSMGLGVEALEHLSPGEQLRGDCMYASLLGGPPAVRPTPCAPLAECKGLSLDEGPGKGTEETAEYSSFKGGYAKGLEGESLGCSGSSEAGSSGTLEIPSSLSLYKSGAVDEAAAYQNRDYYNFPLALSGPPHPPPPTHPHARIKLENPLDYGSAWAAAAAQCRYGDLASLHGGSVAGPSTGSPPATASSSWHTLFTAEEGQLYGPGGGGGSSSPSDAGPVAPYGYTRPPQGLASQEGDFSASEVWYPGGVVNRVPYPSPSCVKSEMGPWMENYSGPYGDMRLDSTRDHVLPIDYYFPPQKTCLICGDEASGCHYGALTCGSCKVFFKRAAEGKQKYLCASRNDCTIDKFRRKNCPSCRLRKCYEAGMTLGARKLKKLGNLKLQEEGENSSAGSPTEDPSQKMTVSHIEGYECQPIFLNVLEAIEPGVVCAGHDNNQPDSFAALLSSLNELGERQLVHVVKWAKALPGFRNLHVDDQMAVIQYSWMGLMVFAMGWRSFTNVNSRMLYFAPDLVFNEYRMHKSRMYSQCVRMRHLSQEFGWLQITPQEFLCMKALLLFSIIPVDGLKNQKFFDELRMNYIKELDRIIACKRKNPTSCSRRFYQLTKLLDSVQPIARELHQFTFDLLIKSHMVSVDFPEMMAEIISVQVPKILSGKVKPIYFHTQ
Description: Recombinant rat AR was expressed and purified from E. Coli. […] After incubation for 4 h at 4° C., the unbound ligands were removed and the amounts of [^3H]mibolerone bound to the AR was measured. The average amounts of [^3H]mibolerone bound to AR at each concentration of competitor were used to make inhibition curves. IC50 values were subsequently determined by a non-linear, least squares regression analysis.

[3] = molecular target: T2, human sex Hormone Binding Globulin (SHBG) (Homo sapiens, UniProt P04278); test: Competitive steroid-binding assay, displacement of [3H]DHT from human SHBG; settings: [3H]DHT as labeled ligand, compared to DHT, T or DHEA (FIG. 1)
T2 sequence (P04278 30-402): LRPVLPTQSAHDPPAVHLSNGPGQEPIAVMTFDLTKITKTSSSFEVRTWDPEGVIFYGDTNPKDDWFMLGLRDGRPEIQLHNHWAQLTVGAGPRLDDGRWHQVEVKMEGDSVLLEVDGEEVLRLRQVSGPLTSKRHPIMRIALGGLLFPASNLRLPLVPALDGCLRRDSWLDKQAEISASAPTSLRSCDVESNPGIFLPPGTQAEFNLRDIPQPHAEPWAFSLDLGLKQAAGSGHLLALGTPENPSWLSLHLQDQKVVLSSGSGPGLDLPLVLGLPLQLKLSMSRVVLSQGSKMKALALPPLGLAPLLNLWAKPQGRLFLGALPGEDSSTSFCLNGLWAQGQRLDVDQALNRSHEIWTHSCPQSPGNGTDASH
Description: Human SHBG was treated for 30 min at room temperature with a dextran-coated charcoal (DCC) suspension in phosphate buffered saline (PBS) to remove any steroid ligand. After centrifugation (2,000×g for 10 min) to sediment the DCC, the supernatant containing the human SHBG was diluted in PBS to a concentration of 1 nM based on its steroid binding capacity.
Duplicate aliquots (100 μl) of this human SHBG solution were then incubated with an equal volume of [^3H]DHT at 10 nM, together with 100 μl of PBS alone or the same amount of PBS containing increasing concentrations of unlabeled steroid ligands as competitors in polystyrene test tubes. After incubation for 1 h at room temperature the reaction mixtures were placed in an ice bath for a further 15 min. […] The unbound ligands adsorbed to DCC were then removed by centrifugation (2,000×g for 15 min at 4° C.), and the amounts of [^3H]labeled DHT bound to SHBG were counted in 2 ml ACS scintillation cocktail using in liquid scintillation spectrophotometer. The average amounts of [^3H] labeled DHT bound to SHBG at each concentration of competitor (B) were expressed as a percentage of the average amounts of [^3H]labeled DHT bound to SHBG in the absence of competitor (T), and were plotted against the concentration of competitor in each assay tube.

SMILES	Increase seminal vesicle wet weight ([1]; oral dose 10 mg/kg/day) [%]	Increase seminal vesicle wet weight ([1]; oral dose 30 mg/kg/day) [%]	pKi [2]	AR-binding Relative affinity [2] [%]	Affinity to AR as compared to DHT and testosterone [2]	Relative potency ([1]; oral dose 10 mg/kg/day) [%]	Relative potency ([1]; oral dose 30 mg/kg/day) [%]	Binding to human SHBG [3]
C[C@]12CCC(=O)C[C@@H]1CC[C@@H]1[C@@H]2CC[C@]2(C)[C@@H](O)CC[C@@H]12 [5α-dihydroxytestosterone, DHT, reference compound]	5	27	–	–	–	–	–	–
C[C@]12CC[C@H]3[C@@H](CCC4=CC(=O)CC[C@@]43C)[C@@H]1[C@@H](O)C[C@@H]2O [15α-hydroxytestosterone, 15α,17β-dihydroxy-4-androsten-3-one]	28	40	5.74	0.05	2 to 3 orders of magnitude less affinity	560	148	do not bind human SHBG
C[C@]12CC[C@H]3[C@@H](CCC4=CC(=O)CC[C@@]43C)[C@@H]1[C@H](O)C[C@@H]2O [15β-hydroxytestosterone, 15β,17β-dihydroxy-4-androsten-3-one]	20	35	6.25	0.18	2 to 3 orders of magnitude less affinity	400	130	do not bind human SHBG
C[C@]12CC[C@H]3[C@@H](CCC4=CC(=O)CC[C@@]43C)[C@@H]1C[C@H](O)[C@@H]2O [16β-hydroxytestosterone, 16β,17β-dihydroxy-4-androsten-3-one]	–	–	6.09	0.12	2 to 3 orders of magnitude less affinity	–	–	–
C[C@]12CC[C@H]3[C@@H](CCC4=CC(=O)CC[C@@]43C)[C@@H]1CC[C@@H]2O [Testosterone, 17β-hydroxy-4-androsten-3-one, reference compound]	41	47	–	–	–	–	–	–
